How the values were obtained:
[1] = system: rat visual cortex slices; assay: Long-term potentiation in visual cortex slice; format: cell-based; settings: LTP at 30 min after induction; for threshold dose for dose-dependent facilitation of LTP: rat visual cortex slices, drug infused 20 min before theta burst stimulation
Protocol: Following decapitation of the anesthetized rat, the brain was rapidly removed and immersed in ice-cold artificial cerebrospinal fluid (ACSF) containing (in mM) NaCl 124, KCl 3, KH2PO4 1.25, CaCl2 3.4, MgSO4 2.5, NaHCO3 26, and D-glucose 10. A block of visual cortex was created by removing the frontal ⅔ portion of the brain and the cerebellum. Coronal visual cortex slices of 350 μm thick were prepared from young adult (200-300 g) male Sprague-Dawley rats using a vibratome (VT 1000 S; Leica). The slices were maintained in an interface recording chamber perfused with preheated ACSF. Slices were continuously perfused with this solution at a rate of 1.00-1.50 ml/min while the surface of the slices was exposed to warm, humidified […] and maintained at 31±1° C. Visual cortex slices were allowed to recover for 1 hr before recording began. A single stimulating and recording electrode was placed in layer IV and III, respectively, to generate and record field excitatory postsynaptic potentials (fEPSPs). Pulses were administered at 0.05 Hz using a current that produced a fEPSP that is 50% of the maximum spike free response. An input-output (IO) curve was done to determine the stimulation needed to achieve a stable baseline. Following a 15 min stable baseline recording period, a train of 5 theta bursts (each burst containing four pulses at 100 Hz with an inter-burst interval of 200 ms) was delivered to the slice. This was repeated 2 additional times with a 1 minute inter-train interval, and the level of LTP was recorded for at least 30 min. Changes in amplitude of the synaptic response were used to measure the extent of LTP, since the amplitude was determined to be the more consistent parameter than the slope of the response. Control LTP values were obtained from slices not treated with drug. Different slices were used to study drug effects on LTP. Compound 4-bromo-N-(imidazolidin-2-ylidene)-1H-benzimidazol-5-amine or (S)-(3-(1-(1H-imidazol-4-yl)ethyl)-2-methylphenyl)methanol) was infused after 15 min baseline recording for a duration of 20 minutes followed by LTP induction. Drug washout began 5 minutes after tetanization. Recording of the amplitude before, during, and after drug infusion was continuously done at 0.05 Hz. Statistical comparisons were done with LTP values recorded at 30 minutes after induction for drug-treated vs control slices (non-paired t-test).
In brief, brain slices from primary visual cortex were prepared and recording of evoked field responses was done as described in the ‘general procedure’ section. A typical LTP run began with establishing a stable baseline, then treatment for 20 min with 4-bromo-N-(imidazolidin-2-ylidene)-1H-benzimidazol-5-amine followed by LTP induction via brief high-frequency theta burst stimulation (TBS) and drug washout 5 min after TBS, and ended after monitoring the amount of LTP for at least 30 min. Control LTP was measured in a group of separate slices within the same chamber infused with aCSF. The amount of LTP present at 30 min after induction was used to compare drug effects at different concentrations relative to the control group. […] The percent increase in LTP was shown relative to the pre-LTP baseline for each condition.
The percent increase in LTP was shown relative to the pre-LTP baseline for each condition.

[2] = rats, after oral dose of brimonidine tartrate (Acheampong et al., Xenobiotica 2007); cited from earlier work

Row | SMILES | LTP compared to control slices ([1]; 3 nM) | LTP compared to control slices ([1]; 30 nM) | LTP compared to control slices ([1]; 300 nM) | threshold dose for dose-dependent facilitation of LTP [1] [nM] | amount found in urine [2] | LTP compared to control slices ([1]; 100 nM)
1 | Brc1c(N=C2NCCN2)ccc2[nH]cnc12 [4-bromo-N-(imidazolidin-2-ylidene)-1H-benzimidazol-5-amine] | significantly facilitated | significantly facilitated | significantly facilitated | 3 | trace amounts | –
2 | Cc1c(CO)cccc1[C@H](C)c1c[nH]cn1 [(S)-(3-(1-(1H-imidazol-4-yl)ethyl)-2-methylphenyl)methanol] | – | – | significantly facilitated | 100 | – | significantly facilitated
